For 18 molecules, IC50 results are on record in patent publication US5599811A, “Benzothiazine dioxides as endothelin antagonists” (Warner-Lambert Company, priority 1995, dated 1997).

One assay concerns the target T1, recombinant human ETA R (Homo sapiens, UniProt P25101).
T1 construct: expressed in transfected cells; host or cells: Ltk- cells
T1 sequence (P25101 21-427): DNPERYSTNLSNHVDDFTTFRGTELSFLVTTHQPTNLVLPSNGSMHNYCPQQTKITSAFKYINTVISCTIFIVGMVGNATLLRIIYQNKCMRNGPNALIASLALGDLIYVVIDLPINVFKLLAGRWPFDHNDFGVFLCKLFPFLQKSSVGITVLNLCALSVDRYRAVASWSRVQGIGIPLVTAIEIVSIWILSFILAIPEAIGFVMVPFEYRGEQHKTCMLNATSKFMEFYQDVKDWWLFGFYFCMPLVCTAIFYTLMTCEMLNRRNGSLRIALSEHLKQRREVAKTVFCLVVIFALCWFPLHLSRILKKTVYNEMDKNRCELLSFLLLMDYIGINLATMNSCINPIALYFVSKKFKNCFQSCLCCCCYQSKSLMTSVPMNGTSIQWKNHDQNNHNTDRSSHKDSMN
The format is binding. To be noted: [125I]-ET-1 40 pM, 2 hours at 37° C.; read-out: HERBAA IC50. The method, then:
(§1) The compounds of Formula I are valuable antagonists of endothelin.
(§2) The following cultured cells were used in binding experiments: rabbit renal artery vascular smooth muscle cells (ERBA-A), Ltk-cells expressing recombinant human ETA R (HERBA-A), and CHO-K1 cells expressing recombinant human ETB R (HERBA-B).
(§3) Membranes were prepared from cultured cells by lysing cells in cold lysis buffer (5 mM HEPES, 2 mM EDTA, pH 7.4) and homogenizing with a Dounce "A" homogenizer. The homogenate was centrifuged at 30,000× g for 20 minutes at 4° C. Membrane pellets were suspended in cold buffer containing 20 mM Tris, 2 mM EDTA, 200 μM Pefabloc, 10 μM phosphoramidon, 10 μM leupeptin, 1 μM pepstatin at pH 7.4 and frozen at -80° C. until use. Membranes were thawed and homogenized with a Brinkmann Polytron then diluted in tissue buffer containing 20 mM Tris, 2 mM EDTA, 200 μM Pefabloc, and 100 μM bacitracin (pH 7.4). Radioligand and competing ligands were prepared in binding buffer containing 20 mM Tris, 2 mM EDTA, and 0.1% BSA.
(§4) Competing binding assays were initiated by combining membranes, [125I]-ET-1 (40 pM) and the competing ligand in a final volume of 250 μL and incubating for 2 hours at 37° C. The assay was terminated by filtration over Whatman GF/B filters which were presoaked with 50 mM Tris, pH 7.4 containing 0.2% BSA and 100 μM bacitracin. Nonspecific binding was defined as binding in the presence of 100 nM ET-1.

The target in a further assay is T2, recombinant human ETB R (Homo sapiens, UniProt P24530).
T2 construct: expressed in transfected cells; host or cells: CHO-K1 cells
T2 sequence (P24530 27-442): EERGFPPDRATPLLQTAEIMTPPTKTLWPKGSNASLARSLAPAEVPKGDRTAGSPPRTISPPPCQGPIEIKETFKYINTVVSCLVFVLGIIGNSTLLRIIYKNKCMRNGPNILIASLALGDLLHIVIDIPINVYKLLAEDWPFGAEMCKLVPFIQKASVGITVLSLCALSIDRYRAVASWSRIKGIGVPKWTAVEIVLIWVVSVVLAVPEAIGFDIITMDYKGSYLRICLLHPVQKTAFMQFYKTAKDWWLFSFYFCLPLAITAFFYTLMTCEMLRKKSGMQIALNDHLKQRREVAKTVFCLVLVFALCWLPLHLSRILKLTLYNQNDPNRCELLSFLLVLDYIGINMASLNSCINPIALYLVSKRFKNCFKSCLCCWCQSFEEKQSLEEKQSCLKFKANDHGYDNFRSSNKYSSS
The class given is binding. The conditions noted are these: [125I]-ET-1 40 pM, 2 hours at 37° C.; read-out: HERBAB IC50. The procedure:
as §1, §2, §3, §4

The next assay addresses T3, ETA (Oryctolagus cuniculus, UniProt A5A8K3).
T3 construct: cultured rabbit renal artery vascular smooth muscle cells; endogenous in cells; host or cells: cultured rabbit renal artery vascular smooth muscle cells
T3 sequence (A5A8K3 21-427): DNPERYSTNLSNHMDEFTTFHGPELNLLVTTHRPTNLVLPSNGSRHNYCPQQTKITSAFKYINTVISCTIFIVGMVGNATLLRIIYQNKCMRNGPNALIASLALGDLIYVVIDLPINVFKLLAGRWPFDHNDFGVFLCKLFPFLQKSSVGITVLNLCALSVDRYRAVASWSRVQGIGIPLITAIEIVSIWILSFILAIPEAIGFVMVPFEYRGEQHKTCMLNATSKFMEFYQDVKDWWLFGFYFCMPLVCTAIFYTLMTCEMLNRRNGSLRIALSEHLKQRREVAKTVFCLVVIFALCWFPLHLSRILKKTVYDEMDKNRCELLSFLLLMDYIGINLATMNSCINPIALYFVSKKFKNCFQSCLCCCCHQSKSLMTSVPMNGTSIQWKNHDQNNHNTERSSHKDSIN
The assay can be described thus: AAR: inhibition of ET-1 stimulated arachidonic acid release in cultured rabbit renal artery vascular smooth muscle cells. The class given is cell-based. The conditions noted are these: 0.3 nM ET-1, 30 minutes.
Source text: as §1

Broadly, the IC50 is the concentration that inhibits the measured activity by half.

On to `COc1cc2c(cc1OC)S(=O)(=O)N(Cc1ccc3c(c1)OCO3)C(C(=O)O)=C2Sc1ccc2c(c1)OCO2` [Example 50, 2-Benzo[1,3]dioxol-5-ylmethyl-4-(benzo[1,3]dioxol-5-ylsulfanyl)-6,7-dimethoxy-1,1-dioxo-1,1-dihydro-1λ^6-benzo[e][1,2]thiazine-3-carboxylic acid], for which the IC50 amounted to 300 nM at recombinant human ETA R and 3.5 µM at recombinant human ETB R.

Consider `COc1cc(CN2C(C(=O)O)=C(c3ccc4c(c3)OCO4)c3ccccc3S2(=O)=O)cc2c1OCO2` [Example 32, 4-Benzo[1,3]dioxol-5-yl-2-(7-methoxy-benzo[1,3]dioxol-5-ylmethyl)-1,1-dioxo-1,2-dihydro-1λ^6-benzo[e][1,2]thiazine-3-carboxylic acid], for which the IC50 on recombinant human ETA R is 300 nM; at recombinant human ETB R, 4.7 µM.

As for `COc1cc(CN2C(C(=O)O)=C(c3ccc4c(c3)OCO4)c3ccccc3S2(=O)=O)cc(OC)c1OC` [Example 29, 4-Benzo[1,3]dioxol-5-yl-1,1-dioxo-2-(3,4,5-trimethoxybenzyl)-1,2-dihydro-1λ^6-benzo[e][1,2]thiazine-3-carboxylic acid], the IC50 on recombinant human ETA R amounted to 170 nM; at recombinant human ETB R, 4.7 µM.

Turning to `COc1ccc(CN2C(C(=O)O)=C(Sc3ccc4c(c3)OCO4)c3ccccc3S2(=O)=O)cc1` [Example 44, 4-(benzo[1,3]dioxol-5-ylsulfanyl)-2-(4-methoxy-benzyl)-1,1-dioxo-1,2-dihydro-1λ^6-benzo[e][1,2]thiazine-3-carboxylic acid], the IC50 on recombinant human ETA R was found to be 400 nM; at recombinant human ETB R it was 2.3 µM.

For `COc1cccc(SC2=C(C(=O)O)N(Cc3ccc4c(c3)OCO4)S(=O)(=O)c3ccccc32)c1` [Example 49, 2-Benzo[1,3]dioxol-5-ylmethyl-4-(3-methoxyphenylsulfanyl)-1,1-dioxo-1,2-dihydro-1λ^6-benzo[e][1,2]thiazine-3-carboxylic acid], the half-inhibitory concentration (IC50) on recombinant human ETA R was 510 nM; on recombinant human ETB R, 8.7 µM.

Take `COc1cc(C2=C(C(=O)O)N(Cc3ccc4c(c3)OCO4)S(=O)(=O)c3ccccc32)cc(OC)c1OC` [Example 24, 2-Benzo[1,3]dioxol-5-ylmethyl-1,1-dioxo-4-(3,4,5-trimethoxyphenyl)-1,2-dihydro-1λ^6-benzo[e][1,2]thiazine-3-carboxylic acid]: the IC50 is 11000 nM on recombinant human ETA R and above 25 µM at recombinant human ETB R.

For the molecule `CN1C(C(=O)O)=C(c2ccc3c(c2)OCO3)c2ccccc2S1(=O)=O` [Example 25, 4-Benzo[1,3]dioxol-5-yl-2-methyl-1,1-dioxo-1,2-dihydro-1λ^6-benzo[e][1,2]thiazine-3-carboxylic acid], the IC50 on recombinant human ETA R was 1700 nM; on recombinant human ETB R, above 25 µM.

For `O=C(NS(=O)(=O)c1ccccc1)C1=C(c2ccc3c(c2)OCO3)c2ccccc2S(=O)(=O)N1Cc1ccc2c(c1)OCO2` [Example 35, N-(4-Benzo[1,3]dioxo-5-yl-2-benzo[1,3]dioxol-5-ylmethyl-1,1-dioxo-1,2-dihydro-1λ^6-benzo[e][1,2]thiazine-3-carbonyl)-benzenesulfonamide], the results for the IC50 at recombinant human ETA R and at recombinant human ETB R were 3000 nM and above 25 µM, respectively.

In the case of `O=C(O)C1=C(c2ccc3c(c2)OCO3)c2ccccc2S(=O)(=O)N1Cc1ccccc1` [Example 27, 4-Benzo[1,3]dioxol-5-yl-2-benzyl-1,1-dioxo-1,2-dihydro-1λ^6-benzo[e][1,2]thiazine-3-carboxylic acid], the IC50 at recombinant human ETA R is 160 nM; on recombinant human ETB R it was 4.6 µM.

For the molecule `CN1C(C(=O)O)=C(Sc2ccc3c(c2)OCO3)c2ccccc2S1(=O)=O` [Example 41, 4-(benzo[1,3]dioxol-5-ylsulfanyl)-2-methyl-1,1-dioxo-1,2-dihydro-1λ^6-benzo[e][1,2]thiazine-3-carboxylic acid], the IC50 at recombinant human ETA R came out at 100 nM; at recombinant human ETB R, 25 µM.

Turning to `COc1ccc(CN2C(C(=O)O)=C(c3ccc4c(c3)OCO4)c3ccccc3S2(=O)=O)c(OCC(=O)O)c1` [Example 30, 4-Benzo[1,3]dioxol-5-yl-2-(2-carboxymethoxy-4-methoxybenzyl)-1,1-dioxo-1,2-dihydro-1λ^6-benzo[e][1,2]thiazine-3-carboxylic acid], the IC50 at recombinant human ETA R was determined as 1800 nM; at recombinant human ETB R, 4.9 µM.

On to `COc1cc(CN2C(C(=O)O)=C(Sc3ccc4c(c3)OCO4)c3ccccc3S2(=O)=O)cc(OC)c1OC` [Example 45, 4-(benzo[1,3]dioxol-5-ylsulfanyl)-2-(3,4,5-trimethoxy-benzyl)-1,1-dioxo-1,2-dihydro-1λ^6-benzo[e][1,2]thiazine-3-carboxylic acid], for which the IC50 on recombinant human ETA R was 200 nM; at recombinant human ETB R it was 12 µM.

For `O=C(O)C1=C(Sc2ccc3c(c2)OCO3)c2ccccc2S(=O)(=O)N1Cc1cc2c(cc1Cl)OCO2` [Example 46, 4-(Benzo[1,3]dioxol-5-ylsulfanyl)-2-(6-chloro-benzo[1,3]dioxol-5-ylmethyl)-1,1-dioxo-1,2-dihydro-1λ^6-benzo[e][1,2]thiazine-3-carboxylic acid], the IC50 on recombinant human ETA R came to 510 nM; at recombinant human ETB R it was 22 µM.

With `O=C(O)C1=C(Sc2ccc3c(c2)OCO3)c2ccccc2S(=O)(=O)N1Cc1ccccc1` [Example 43, 4-(benzo[1,3]dioxol-5-ylsulfanyl)-2-benzyl-1,1-dioxo-1,2-dihydro-1λ^6-benzo[e][1,2]thiazine-3-carboxylic acid], the IC50 at recombinant human ETA R was found to be 120 nM; on recombinant human ETB R, 12 µM.

Take `O=C(O)C1=C(c2ccc3c(c2)OCO3)c2ccccc2S(=O)(=O)N1Cc1ccc2c(c1)OCO2` [Example 26, 4-Benzo[1,3]dioxol-5-yl-2-benzo[1,3]dioxol-5-ylmethyl-1,1-dioxo-1,2-dihydro-1λ^6-benzo[e][1,2]thiazine-3-carboxylic acid]: the values for the IC50 on recombinant human ETA R and on recombinant human ETB R were 300 nM and 3.1 µM, respectively.

As for `O=C(O)C1=C(c2ccc3c(c2)OCO3)c2ccccc2S(=O)(=O)N1Cc1cc2c(cc1Cl)OCO2` [Example 31, 4-Benzo[1,3]dioxol-5-yl-2-(6-chloro-benzo[1,3]dioxol-5-ylmethyl)-1,1-dioxo-1,2-dihydro-1λ^6-benzo[e][1,2]thiazine-3-carboxylic acid], the IC50 at ETA was found to be 1300 nM; on recombinant human ETA R, 55 nM; on recombinant human ETB R, 0.38 µM.

For the molecule `COc1ccc(SC2=C(C(=O)O)N(Cc3ccc4c(c3)OCO4)S(=O)(=O)c3ccccc32)cc1OC` [Example 48, 2-Benzo[1,3]dioxol-5-ylmethyl-4-(3,4-dimethoxyphenylsulfanyl)-1,1-dioxo-1,2-dihydro-1λ^6-benzo[e][1,2]thiazine-3-carboxylic acid], the figures for the IC50 on recombinant human ETA R and on recombinant human ETB R were 230 nM and 8.2 µM, respectively.

On to `COc1ccc(C2=C(C(=O)O)N(Cc3ccc4c(c3)OCO4)S(=O)(=O)c3ccccc32)cc1OC` [Example 33, 2-Benzo[1,3]dioxol-5-ylmethyl-4-(3,4-dimethoxy-phenyl)-1,1-dioxo-1,2-dihydro-1λ^6-benzo[e][1,2]thiazine-3-carboxylic acid], for which the IC50 is 720 nM on recombinant human ETA R and 3.6 µM at recombinant human ETB R.
